Experimental data reported in article PMC5003785, “An unusual UMP C-5 methylase in nucleoside antibiotic polyoxin biosynthesis” (Protein & Cell, 2016).

Key:
PolB = biological target: T1, PolB (Streptomyces asoensis, UniProt C1IC19); assay: crystal structure; type: binding
T1 construct: N-terminal His6-tagged, expressed in E. coli BL21(DE3); FAD-containing; homotetramer

SVIThyX2 = biological target: T2, SVIThyX2 (Streptomyces viridochromogenes, UniProt D9X6S9); assay: LC-MS methylation assay; type: biochemical; conditions: NADPH, CH2H4folate; 50 mmol/L Tris-HCl pH 8.0
T2 construct: gene thyX
T2 sequence (D9X6S9 entry or part of it): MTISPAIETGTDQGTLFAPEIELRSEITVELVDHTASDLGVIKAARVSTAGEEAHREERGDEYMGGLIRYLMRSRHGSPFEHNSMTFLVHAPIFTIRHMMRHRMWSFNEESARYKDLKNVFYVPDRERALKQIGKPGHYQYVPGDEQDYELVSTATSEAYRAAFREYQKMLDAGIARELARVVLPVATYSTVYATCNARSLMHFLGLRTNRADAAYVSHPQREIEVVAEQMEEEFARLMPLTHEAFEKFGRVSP

ThyX = biological target: T3, ThyX (Streptomyces asoensis, UniProt M1ETU3); assay: LC-MS methylation assay; type: biochemical; conditions: NADPH, CH2H4folate; 50 mmol/L Tris-HCl pH 8.0
T3 construct: gene thyX_2; recombinant
T3 sequence (M1ETU3 1-246): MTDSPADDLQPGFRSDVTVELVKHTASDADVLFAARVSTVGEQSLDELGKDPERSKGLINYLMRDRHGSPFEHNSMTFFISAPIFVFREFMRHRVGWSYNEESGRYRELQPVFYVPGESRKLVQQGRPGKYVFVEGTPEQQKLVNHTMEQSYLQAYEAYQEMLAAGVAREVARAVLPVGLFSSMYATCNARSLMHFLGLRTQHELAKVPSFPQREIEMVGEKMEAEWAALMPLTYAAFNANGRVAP

[1] = biological target: PolB from S. cacaoi (UMP C-5 methylase with thymidylate synthase activity) (S. cacaoi); assay: crystal structure; PolB with 4 mmol/L 5-Br dUMP; 1.4 mol/L sodium acetate, 0.1 mol/L sodium cacodylate pH 6.5, 20°C
[2] = biological target: PolB from S. cacaoi (UMP C-5 methylase with thymidylate synthase activity) (S. cacaoi); assay: crystal structure; apo-PolB, space group P2(1), two tetramers in the asymmetric unit; 17% PEG4000, 0.2 mol/L Li2SO4, 0.1 mol/L Tris-HCl pH 8.5, 20°C
methylation kinetics [3] = substrate: O=c1ccn([C@@H]2O[C@H](COP(=O)(O)O)[C@@H](O)[C@H]2O)c(=O)[nH]1; assay: methylation kinetics; type: biochemical, Streptomyces asoensis; conditions: NADPH and CH2H4folate co-substrates, assay buffer 50 mmol/L Tris-HCl pH 8.0
methylation kinetics [4] = substrate: O=c1ccn([C@H]2C[C@H](O)[C@@H](COP(=O)(O)O)O2)c(=O)[nH]1; assay: methylation kinetics; type: biochemical, Streptomyces asoensis; conditions: NADPH and CH2H4folate co-substrates, assay buffer 50 mmol/L Tris-HCl pH 8.0

O=c1[nH]c(=O)n([C@@H]2O[C@H](COP(=O)(O)O)[C@@H](O)[C@H]2O)cc1Br [5-Br UMP]
crystal structure (PolB; 1.76 Å, substrate analog in active site): structures in complex with substrate analogs 5-Br dUMP and 5-Br UMP

O=c1[nH]c(=O)n([C@H]2C[C@H](O)[C@@H](COP(=O)(O)O)O2)cc1Br [5-Br dUMP]
crystal structure (PolB; 2.28 Å, substrate analog in active site, stacked on FAD isoalloxazine): structures in complex with substrate analogs 5-Br dUMP and 5-Br UMP

Cc1cc2nc3c(=O)[nH]c(=O)nc-3n(C[C@H](O)[C@H](O)[C@H](O)COP(=O)(O)OP(=O)(O)OC[C@H]3O[C@@H](n4cnc5c(N)ncnc54)[C@H](O)[C@@H]3O)c2cc1C [FAD]
crystal structure (PolB; bound flavin in the 5-Br dUMP complex): 5-Br dUMP poses strong π-π interaction with the isoalloxazine moiety of FAD

O=c1ccn([C@@H]2O[C@H](COP(=O)(O)O)[C@@H](O)[C@H]2O)c(=O)[nH]1 [UMP]
LC-MS methylation assay (SVIThyX2): SVIThyX2 was able to catalyze the methylation for both UMP and dUMP

O=c1ccn([C@H]2C[C@H](O)[C@@H](COP(=O)(O)O)O2)c(=O)[nH]1 [dUMP]
LC-MS methylation assay (SVIThyX2): SVIThyX2 was able to catalyze the methylation for both UMP and dUMP | LC-MS methylation assay (ThyX): recombinant S. cacaoi ThyX could catalyze the methylation of dUMP but not UMP

PolB from S. cacaoi (UMP C-5 methylase with thymidylate synthase activity) (enzyme)
stoichiometry N [1]: 4 | stoichiometry N [2]: 4

B1: PolB (Streptomyces asoensis) (protein)
chain: MESPRIELRSDITVELVDSSASDLAVVKAARVSTAGEDANDELYDGGSTRGLIRYLMRSRHGSPFEHNSMTFLVRAPIFTVRHLMRHRTWSFNEESARYREVGAAFYVPDATRLLRQEGKPGDYRYVGGSTDDHQQVVRSATRAYEVAFEEYQRLLDSGIAREIARLVLPVSTYSVLYATCNARALMHFLSLRTHRPDAAYVSHPQREIEMVAEQMETAWAKLMPVTHEAFTAFGRVSP
notes: N-terminal His6-tagged, expressed in E. coli BL21(DE3); FAD-containing; homotetramer
Km (methylation kinetics [3]): 19.48 ± 4.15 µM | kcat (methylation kinetics [3]): 0.0515 ± 0.00283 s⁻¹ | Km (methylation kinetics [4]): 12.96 ± 0.89 µM | kcat (methylation kinetics [4]): 0.029 ± 0.00083 s⁻¹
